target: T1, Chemerin-like receptor 1 (Homo sapiens, UniProt Q99788); assay: Displacement of [125I]-chemerin from ChemR23 (unknown origin) transfected in mouse BaF3 cells after 3 hrs by scintillation counting method; format: cell-based
T1 sequence (Q99788 whole entry): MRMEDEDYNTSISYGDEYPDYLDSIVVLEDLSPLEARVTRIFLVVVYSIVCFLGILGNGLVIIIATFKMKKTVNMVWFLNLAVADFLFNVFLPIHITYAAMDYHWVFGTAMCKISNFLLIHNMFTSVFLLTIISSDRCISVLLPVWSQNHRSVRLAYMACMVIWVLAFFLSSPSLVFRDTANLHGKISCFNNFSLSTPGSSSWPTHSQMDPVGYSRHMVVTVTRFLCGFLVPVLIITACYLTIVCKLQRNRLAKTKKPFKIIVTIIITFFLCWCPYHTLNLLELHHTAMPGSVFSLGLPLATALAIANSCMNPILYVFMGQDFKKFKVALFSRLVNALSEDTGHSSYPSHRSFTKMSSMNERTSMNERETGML

SMILES | IC50 [nM]
Cc1cccc(C)c1N1C[C@@](C(=O)Nc2cc(C(F)(F)F)cc(C(F)(F)F)c2)(C(C)C)[C@H](C)C1=O | ≤ 30
CCc1cccc(C)c1N1CC(C(=O)Nc2cccc(Cl)c2)CC1=O (configuration not stated) | 300 to 6000
Cc1cccc(C)c1N1C[C@@](CN(C)C2CCC2)(C(=O)Nc2cc(C(F)(F)F)cc(C(F)(F)F)c2)[C@H](C)C1=O | ≤ 30
CC[C@@]1(C(=O)Nc2cc(C(F)(F)F)cc(C(F)(F)F)c2)CN(c2c(C)cccc2C)C(=O)[C@@H]1C | 30 to 300
CC[C@@]1(C(=O)Nc2cc(C(F)(F)F)cc(C(F)(F)F)c2)CN(c2c(C)cccc2C)C(=O)[C@H]1C | 30 to 300
Cc1cccc(C)c1N1C[C@@](C)(C(=O)Nc2cc(C(F)(F)F)cc(C(F)(F)F)c2)[C@H](C)C1=O | ≤ 30
COCC1(C(=O)Nc2cc(C(F)(F)F)cc(C(F)(F)F)c2)CC(=O)N(c2c(C)cccc2C)C1 (configuration not stated) | ≤ 30
Cc1cccc(C)c1N1CC(C(=O)Nc2cc(Cl)cc(C#N)c2)CC1=O (configuration not stated) | 300 to 6000
Cc1cccc(C)c1N1C[C@@](CN2CCC(F)(F)CC2)(C(=O)Nc2cc(F)cc(C(F)(F)F)c2)[C@H](C)C1=O | 30 to 300
Cc1cccc(CCN2CCCC2)c1N1CC(C(=O)Nc2cc(C(F)(F)F)cc(C(F)(F)F)c2)(C(C)C)CC1=O (configuration not stated) | 300 to 6000
Cc1cccc(C)c1N1C[C@@](CN2CCC(F)CC2)(C(=O)Nc2cc(C(F)(F)F)cc(C(F)(F)F)c2)[C@H](C)C1=O | 30 to 300
Cc1cccc(C)c1N1CC(C(=O)Nc2cc(C(F)(F)F)cc(C(F)(F)F)c2)(N2CCOCC2)CC1=O (configuration not stated) | ≤ 30
Cc1cccc(C)c1N1CC(C(=O)Nc2cc(C(F)(F)F)cc(C(F)(F)F)c2)(C2=CCOCC2)CC1=O (configuration not stated) | ≤ 30
Cc1cccc(C)c1N1CC(O)(C(=O)Nc2cc(C(F)(F)F)cc(C(F)(F)F)c2)CC1=O (configuration not stated) | 30 to 300
C=C(C)CC1(C(=O)Nc2cc(C(F)(F)F)cc(C(F)(F)F)c2)CC(=O)N(c2c(C)cccc2C)C1 (configuration not stated) | ≤ 30
CCN(CC)C[C@@]1(C(=O)Nc2cc(OC(C)C)cc(C(F)(F)F)c2)CN(c2c(C)cccc2C)C(=O)[C@H]1C | 30 to 300
Cc1cccc(C)c1N1C[C@@](CN2CCOCC2)(C(=O)Nc2cc(C(F)(F)F)cc(C(F)(F)F)c2)[C@H](C)C1=O | 300 to 6000
Cc1ccc(C)c(N2CC(C(=O)Nc3cc(C(F)(F)F)cc(C(F)(F)F)c3)CC2=O)c1 (configuration not stated) | 30 to 300
Cc1cccc(C)c1N1C[C@@](CN(C)CC(C)C)(C(=O)Nc2cc(C3CC3)cc(C(F)(F)F)c2)[C@H](C)C1=O | 30 to 300

SMILES | IC50 [nM]
Cc1cccc(C)c1N1C[C@@](CN(C)C(C)C)(C(=O)Nc2cc(C(F)(F)F)cc(C(F)(F)F)c2)[C@H](C)C1=O | ≤ 30
Cc1cccc(C)c1N1C[C@@](CN(C)C(C)C)(C(=O)Nc2cc(C3CC3)cc(C(F)(F)F)c2)[C@H](C)C1=O | 30 to 300
Cc1cccc(C)c1N1CC(CC(C)C)(C(=O)Nc2cc(C(F)(F)F)cc(C(F)(F)F)c2)CC1=O (configuration not stated) | ≤ 30
Cc1cccc(C)c1N1CC(C(=O)Nc2ccc(Cl)cc2Cl)CC1=O (configuration not stated) | 300 to 6000
CCc1cc(NC(=O)[C@]2(CN3CCC(F)(F)CC3)CN(c3c(C)cccc3C)C(=O)[C@H]2C)cc(C(F)(F)F)c1 | 30 to 300
COc1cc(NC(=O)C2CC(=O)N(c3c(C)cccc3C)C2)cc(C(F)(F)F)c1 (configuration not stated) | 30 to 300
Cc1cccc(C)c1N1CC(C(=O)Nc2cc(C(F)(F)F)cc(C(F)(F)F)c2)(C2CCSCC2)CC1=O (configuration not stated) | ≤ 30
CCc1cccc(C)c1N1CC(C(=O)Nc2ccc(OC)c(C(F)(F)F)c2)CC1=O (configuration not stated) | 300 to 6000
Cc1cccc(C)c1N1C[C@@](CN(CCF)CC2CC2)(C(=O)Nc2cc(C(F)(F)F)cc(C(F)(F)F)c2)[C@H](C)C1=O | ≤ 30
Cc1cccc(C)c1N1CC(NC(C)C)(C(=O)Nc2cc(C(F)(F)F)cc(C(F)(F)F)c2)CC1=O (configuration not stated) | ≤ 30
Cc1cccc(C)c1N1C[C@@](CN2CCC(F)(F)C2)(C(=O)Nc2cc(C#N)cc(C(F)(F)F)c2)[C@H](C)C1=O | ≤ 30
Cc1cccc(C)c1N1C[C@](C)(C(=O)Nc2cc(C(F)(F)F)cc(C(F)(F)F)c2)[C@H](C)C1=O | 30 to 300
CCN(CC)C[C@@]1(C(=O)Nc2cc(Cl)cc(C(F)(F)F)c2)CN(c2c(C)cccc2C)C(=O)[C@H]1C | 30 to 300
Cc1ccccc1N1CC(C(=O)Nc2cc(C3CC3)cc(C(F)(F)F)c2)(C(C)C)CC1=O (configuration not stated) | 30 to 300
CC[C@@]1(C(=O)Nc2cc(OC)cc(C(F)(F)F)c2)CN(c2c(C)cccc2C)C(=O)[C@H]1C | 30 to 300
Cc1cccc(C)c1N1C[C@@](CN2CCCC2)(C(=O)Nc2cc(C(F)(F)F)cc(C(F)(F)F)c2)[C@H](C)C1=O | 300 to 6000
CC[C@@H]1C(=O)N(c2c(C)cccc2C)C[C@]1(C)C(=O)Nc1cc(C(F)(F)F)cc(C(F)(F)F)c1 | 300 to 6000
Cc1cccc(C)c1N1C[C@@](CN2CCC(F)(F)CC2)(C(=O)Nc2cc(OC(C)C)cc(C(F)(F)F)c2)[C@H](C)C1=O | ≤ 30
Cc1cccc(C)c1N1C[C@@](CN2CCC(F)(F)C2)(C(=O)Nc2cc(C3CC3)cc(C(F)(F)F)c2)[C@H](C)C1=O | 30 to 300

SMILES | IC50 [nM]
Cc1cccc(C)c1N1C[C@@](CN(C)C(C)(C)CO)(C(=O)Nc2cc(C(F)(F)F)cc(C(F)(F)F)c2)[C@H](C)C1=O | 30 to 300
CCN(CC)C[C@@]1(C(=O)Nc2cc(C#N)cc(C(F)(F)F)c2)CN(c2c(C)cccc2C)C(=O)[C@H]1C | ≤ 30
Cc1cccc(C)c1N1C[C@@](CN2CCCC(F)(F)C2)(C(=O)Nc2cc(C(F)(F)F)cc(C(F)(F)F)c2)[C@H](C)C1=O | 30 to 300
CC[C@@]1(C(=O)Nc2cc(C#N)cc(C(F)(F)F)c2)CN(c2c(C)cccc2C)C(=O)[C@H]1C | ≤ 30
Cc1cccc(C)c1N1C[C@@](CN(C)CCF)(C(=O)Nc2cc(C(F)(F)F)cc(C(F)(F)F)c2)[C@H](C)C1=O | ≤ 30
COCCN(C)C[C@@]1(C(=O)Nc2cc(C(F)(F)F)cc(C(F)(F)F)c2)CN(c2c(C)cccc2C)C(=O)[C@H]1C | 30 to 300
Cc1cccc(C)c1N1CC(C(=O)Nc2cc(C(F)(F)F)cc(C(F)(F)F)c2)(C(C)(C)O)CC1=O (configuration not stated) | ≤ 30
COCc1cccc(C)c1N1C[C@](C(=O)Nc2cc(C(F)(F)F)cc(C(F)(F)F)c2)(C(C)C)CC1=O | 30 to 300
Cc1cccc(C)c1N1C[C@@](CN2CCC(F)CC2)(C(=O)Nc2cc(C#N)cc(C(F)(F)F)c2)[C@H](C)C1=O | ≤ 30
Cc1cccc(C)c1N1CC(COCc2ccccc2)(C(=O)Nc2cc(C(F)(F)F)cc(C(F)(F)F)c2)CC1=O (configuration not stated) | ≤ 30
CC(C)C1(C(=O)Nc2cc(C3CC3)cc(C(F)(F)F)c2)CC(=O)N(c2ccccc2Cl)C1 (configuration not stated) | 30 to 300
CC[C@@]1(C(=O)Nc2cc(OC3CCC3)cc(C(F)(F)F)c2)CN(c2c(C)cccc2C)C(=O)[C@H]1C | ≤ 30
Cc1cccc(C)c1N1CC(CCCO)(C(=O)Nc2cc(C(F)(F)F)cc(C(F)(F)F)c2)CC1=O (configuration not stated) | 30 to 300
CC[C@@]1(C(=O)Nc2ccc(C)c(C(F)(F)F)c2)CN(c2c(C)cccc2C)C(=O)[C@H]1C | 30 to 300
Cc1cccc(Br)c1N1CC(C(=O)Nc2cc(C(F)(F)F)cc(C(F)(F)F)c2)(C(C)C)CC1=O (configuration not stated) | ≤ 30
CCN(CC)C[C@@]1(C(=O)Nc2cc(C(F)(F)F)cc(C(F)(F)F)c2)CN(c2c(C)cccc2C)C(=O)[C@H]1C | 300 to 6000
CCOc1cc(NC(=O)[C@]2(CC)CN(c3c(C)cccc3C)C(=O)[C@H]2C)cc(C(F)(F)F)c1 | 30 to 300
CCOCc1cccc(C)c1N1CC(C(=O)Nc2cc(C(F)(F)F)cc(C(F)(F)F)c2)(C(C)C)CC1=O (configuration not stated) | 300 to 6000
Cc1cccc(C)c1N1CC(C(=O)Nc2cccc(C#N)c2)CC1=O (configuration not stated) | 300 to 6000

Reference: ChEMBL document CHEMBL3879908, “Pyrrolidinone carboxamide derivatives” (2014)
